Reference: US20250186450A1, “COMBINATION THERAPY COMPRISING DGK INHIBITORS and PD-1/PD-L1 INHIBITORS” (Incyte Corporation, priority 2023, published 2025)

Tested on: CT26 syngeneic tumor model
Assay: CT26 syngeneic tumor model, DGK inhibitor plus anti-PD-1 (RMP1-14)
Type: in vivo, Balb/C mice
Details: for tumor growth delay vs control vehicle group: Compound 1 alone
Protocol: The in vivo effect of combining Compound 1 plus anti-PD-1 (RMP1-14, Bio X Cell) was assessed in the CT26 (CRL-2638, ATCC, Manassas, VA) syngeneic tumor model (see FIG. 1) in 6 to 8 weeks old Balb/C mice (Jackson laboratories). Compound 1 was suspended in 5% N,N-dimethylacetamide (DMAC)+50 mM Citrate buffer in 0.5% methyl cellulose for oral administration and RMP1-14 was suspended in saline for intraperitoneal administration. Briefly, the left flank of the mice was shaved the day prior to subcutaneous inoculation with 1×10^6 CT26 cells suspended in PBS. On day 7, tumor dimensions were measured by Vernier calipers, and volume estimated by the formula Volume=[L (long dimension)×W^2 (short dimension)]/2. Mice were randomized into 6 groups of 10 mice of approximate mean volume (˜150 mm^3). Tumors were measured 3 times per week for the duration of the study. Starting day 7, mice were dosed with (i) vehicle; (ii) 250 μg/mouse of RMP1-14; (iii) 10 mg/kg of Compound 1; (iv) 3 mg/kg of Compound 1; (v) 10 mg/kg of Compound 1 and 250 μg/mouse of RMP1-14; or (vi) 3 mg/kg of Compound 1 and 250 μg/mouse of RMP1-14. Compound 1 was administered orally once daily (QD) for 14 days, while RMP1-14 was dosed every 5 days (for a total of 3 doses).
In a separate experiment, mice were randomized on day 7 into 10 groups of 10 mice of approximate mean volume (˜120 mm^3). Tumors were measured 3 times a week for the duration of the efficacy study (day 22). Starting day 7, mice were dosed with (i) vehicle; (ii) 250 μg/mouse of RMP1-14; (iii) 10 mg/kg of Compound 1 QD; (iv) 10 mg/kg of Compound 1 Q2D; (v) 3 mg/kg of Compound 1 QD; (vi) 3 mg/kg of Compound 1 […]; (vii) 10 mg/kg of Compound 1 QD and 250 μg/mouse of RMP1-14; (viii) 10 mg/kg of Compound 1 Q2D and 250 μg/mouse of RMP1-14; (ix) 3 mg/kg of Compound 1 QD and 250 μg/mouse of RMP1-14; or (x) 3 mg/kg of Compound 1 Q2D and 250 μg/mouse of RMP1-14. Compound 1 was administered orally either daily (QD) or every other day (Q2D) for 10 days, while RMP1-14 was dosed every 5 days (for a total of 2 doses).
The in vivo effect of combining Compound 2 plus anti-PD-1 (RMP1-14, Bio X Cell) was assessed in the CT26 (CRL-2638, ATCC, Manassas, VA) syngeneic tumor model (see FIG. 6A-6B) in 6 to 8 weeks old Balb/C mice (Jackson laboratories). Compound 2 was suspended in 5% N,N-dimethylacetamide (DMAC)+50 mM Citrate buffer in 0.5% methyl cellulose for oral administration and RMP1-14 was suspended in saline for intraperitoneal administration. Briefly, the left flank of the mice was shaved the day prior to subcutaneous inoculation with 1×10^6 CT26 cells suspended in PBS. On day 7, tumor dimensions were measured by Vernier calipers, and volume estimated by the formula Volume=[L (long dimension)×W^2 (short dimension)]/2. Mice were randomized into 6 groups of 10 mice of approximate mean volume (˜130 mm^3). Tumors were measured 3 times per week for the duration of the study. Starting day 7, mice were dosed with (i) vehicle; (ii) 250 μg/mouse of RMP1-14 (Anti-PD-1); (iii) 1.5 mg/kg of Compound 2 QD; (iv) 1.5 mg/kg of Compound 2 QD and 250 μg/mouse of RMP1-14; (v) 1.5 mg/kg of Compound 2 Q2D; (vi) 1.5 mg/kg of Compound 2 Q2D and 250 μg/mouse of RMP1-14; (vii) 1.5 mg/kg of Compound 2 Q3D; or (viii) 1.5 mg/kg of Compound 2 Q3D and 250 μg/mouse of RMP1-14.

| SMILES | TGI, combined with anti-PD-1 mAb (1.5 mg/kg Compound 2 Q2D and 250 μg/mouse RMP1-14, FIGS. 6A-6B) | TGI, combination groups vs respective single-arm control group (1.5 mg/kg Compound 2 QD, Q2D or Q3D and 250 μg/mouse RMP1-14) | TGI vs vehicle control group (Compound 2 alone, 1.5 mg/kg QD, Q2D or Q3D, FIG. 6B) | combination effect on tumor growth delay (Bliss Independence analysis) (10 mg/kg or 3 mg/kg Compound 1 QD for 14 days with 250 μg RMP1-14 every 5 days, vs respective controls, FIG. 1) | combination effect on tumor growth delay (Bliss Independence analysis) (10 mg/kg or 3 mg/kg Compound 1 QD or Q2D for 10 days with 250 μg RMP1-14, vs respective controls, FIG. 2) | tumor growth delay vs control vehicle group (10 mg/kg orally QD for 14 days, FIG. 1) | tumor growth delay vs control vehicle group (10 and 3 mg/kg QD for 10 days, separate experiment, FIG. 2) | tumor volume vs RMP1-14 alone (Kruskal-Wallis Multiple Comparison Test) (all groups tested against group (ii) 250 μg/mouse RMP1-14, FIG. 2) |
| --- | --- | --- | --- | --- | --- | --- | --- | --- |
| Cc1nc2c(N3C[C@@H](C)N(C(c4ccc(C(F)(F)F)cc4)C4CC(F)(F)C4)C[C@@H]3C)nc3nncn3c2n1C[C@@H]1CCCO1 (single isomer, unassigned) [Example 2] | significant TGI | statistically significant | None of the single treatment arm groups dosed with 1.5 mg/kg Compound 2 provided statistically significant TGI | – | – | – | – | – |
| C[C@@H]1CN(c2nc3nncn3c3c2nnn3C[C@H]2CCCO2)[C@@H](C)CN1C(c1ccc(F)cc1)c1ccc(F)cc1 [Example 1, 4-((2S,5R)-4-(Bis(4-fluorophenyl)methyl)-2,5-dimethylpiperazin-1-yl)-1-(((R)-tetrahydrofuran-2-yl)methyl)-1H-[1,2,3]triazolo[4,5-e][1,2,4]triazolo[4,3-a]pyrimidine] | – | – | – | synergistic effect in tumor growth delay | synergistic effect in tumor growth delay | therapeutic effect in delaying tumor growth | therapeutic effect in delaying tumor growth | statistical significance |
